Source: PubChem BioAssay AID328 (DTP/NCI, 2004)
Several values for one entry are separate records, joined by “and”; a condition that tells them apart may be missing. Identical values can stand only once. Inconclusive results and toxic doses are left out. The calls were made as follows: active = survival T/C of 150% or more; inactive = T/C below 125% in these data.

Tested on: BDF1 mice, P388 leukemia ip, median survival T/C
Assay: NCI In Vivo Anticancer Drug Screen. Data for tumor model P388 Leukemia (intraperitoneal) in B6D2F1 (BDF1) mice
Conditions: endpoint: median survival time, higher = longer survival
Outline: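 In tumour-bearing mice, survival after compound treatment is set against the vehicle group and given as a quotient.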

[1] = dose: 25.0 mg/kg/injection, schedule: Q01DX009 (ip), vehicle: saline with Tween-80
[2] = dose: 50.0 mg/kg/injection, schedule: Q01DX009 (ip), vehicle: saline with Tween-80
[3] = dose: 50.0 mg/kg/injection, schedule: Q04DX003 (ip), vehicle: saline with Tween-80
[4] = dose: 100.0 mg/kg/injection, schedule: Q01DX009 (ip), vehicle: saline with Tween-80
[5] = dose: 100.0 mg/kg/injection, schedule: Q04DX003 (ip), vehicle: saline with Tween-80
[6] = dose: 200.0 mg/kg/injection, schedule: Q01DX009 (ip), vehicle: saline with Tween-80
[7] = dose: 200.0 mg/kg/injection, schedule: Q04DX003 (ip), vehicle: saline with Tween-80
[8] = dose: 100.0 mg/kg/injection, schedule: Q01DX009 (ip), vehicle: saline
[9] = dose: 100.0 mg/kg/injection, schedule: Q04DX003 (ip), vehicle: saline
[10] = dose: 200.0 mg/kg/injection, schedule: Q01DX009 (ip), vehicle: saline
[11] = dose: 200.0 mg/kg/injection, schedule: Q04DX003 (ip), vehicle: saline
[12] = dose: 400.0 mg/kg/injection, schedule: Q04DX003 (ip), vehicle: saline

Measured: T/C

O=C1CSCC(=O)O1
inactive: dose: 50.0 mg/kg/injection, schedule: Q01DX009 (ip), vehicle: Klucel (hydroxypropylcellulose) (HPC) 105 % of control | dose: 50.0 mg/kg/injection, schedule: Q04DX003 (ip), vehicle: Klucel (hydroxypropylcellulose) (HPC) 95 % of control | dose: 100.0 mg/kg/injection, schedule: Q04DX003 (ip), vehicle: Klucel (hydroxypropylcellulose) (HPC) 95 % of control | dose: 200.0 mg/kg/injection, schedule: Q04DX003 (ip), vehicle: Klucel (hydroxypropylcellulose) (HPC) 109 % of control

O=C(N/N=C/C=C/c1ccccc1)[C@H](O)[C@@H](O)C(=O)N/N=C/C=C/c1ccccc1
inactive: dose: 100.0 mg/kg/injection, schedule: Q01DX009 (ip), vehicle: Klucel (hydroxypropylcellulose) (HPC) 88 % of control | dose: 200.0 mg/kg/injection, schedule: Q01DX009 (ip), vehicle: Klucel (hydroxypropylcellulose) (HPC) 96 % of control | dose: 400.0 mg/kg/injection, schedule: Q01DX009 (ip), vehicle: Klucel (hydroxypropylcellulose) (HPC) 92 % of control

C[n+]1c(-c2ccc(Cl)cc2Cl)c2cc([N+](=O)[O-])ccc2c2ccccc21
inactive: dose: 3.12 mg/kg/injection, schedule: Q01DX009 (ip), vehicle: water 104 % of control | dose: 6.25 mg/kg/injection, schedule: Q01DX009 (ip), vehicle: water 88 % of control and 104 % of control and 112 % of control | dose: 12.5 mg/kg/injection, schedule: Q01DX009 (ip), vehicle: water 110 % of control and 119 % of control | dose: 25.0 mg/kg/injection, schedule: Q01DX009 (ip), vehicle: water 104 % of control (2×) and 112 % of control | dose: 50.0 mg/kg/injection, schedule: Q01DX009 (ip), vehicle: water 101 % of control

CCOC(=O)CCCN(c1sc(C)c(C)c1C(=O)OCC)S(=O)(=O)c1ccc(C)cc1
inactive: [1] 104 % of control | [2] 109 % of control | [3] 91 % of control | [4] 104 % of control | [5] 87 % of control | [6] 95 % of control | [7] 95 % of control | dose: 400.0 mg/kg/injection, schedule: Q04DX003 (ip), vehicle: saline with Tween-80 87 % of control

OCc1cccc(F)c1
inactive: [8] 96 % of control | [9] 109 % of control | [10] 107 % of control | [11] 109 % of control | [12] 104 % of control

COc1ccc(C(=O)CC(c2ccc3c(c2)OCO3)c2c(O)c3ccccc3oc2=O)cc1OC (stereo not drawn)
inactive: [1] 91 % of control | [2] 116 % of control | dose: 75.0 mg/kg/injection, schedule: Q01DX009 (ip), vehicle: saline with Tween-80 88 % of control | [4] 97 % of control and 123 % of control | dose: 150.0 mg/kg/injection, schedule: Q01DX009 (ip), vehicle: saline with Tween-80 101 % of control | [6] 87 % of control

O=C(c1ccccc1)C1OC1c1ccccc1 (stereo not drawn)
inactive: [4] 93 % of control | [6] 99 % of control | dose: 400.0 mg/kg/injection, schedule: Q01DX009 (ip), vehicle: saline with Tween-80 100 % of control | dose: 600.0 mg/kg/injection, schedule: Q01DX009 (ip), vehicle: saline with Tween-80 100 % of control

NC(=O)NOCC(N)C(=O)O (stereo not drawn)
inactive: [9] 104 % of control | [11] 100 % of control | [12] 104 % of control

CC(C)(C)CC(C)(C)c1ccc(O)cc1O
inactive: [1] 120 % of control | [2] 95 % of control

O=P(O)(Oc1ccccc1)Oc1ccccc1.[Al]
inactive: [2] 104 % of control | [4] 95 % of control | [6] 95 % of control

CC(C)(C)OC(=O)NC(CCSCC(=O)O)C(N)=O (stereo not drawn)
inactive: dose: 50.0 mg/kg/injection, schedule: Q01DX009 (ip), vehicle: saline 91 % of control | [8] 88 % of control | [10] 95 % of control

CCOC(=O)N/N=C\c1cc(OC)c(OC)c(OC)c1
inactive: dose: 6.25 mg/kg/injection, schedule: Q01DX009 (ip), vehicle: saline with Tween-80 95 % of control | dose: 12.5 mg/kg/injection, schedule: Q01DX009 (ip), vehicle: saline with Tween-80 90 % of control | [1] 90 % of control | [2] 90 % of control | [3] 100 % of control | [5] 108 % of control | [7] 104 % of control
